B1: SC03-015 (scFv)
scFv: AMAEVQLVESGGGVVRPGGSLRLSCAASGFTFDDYGMSWVRQAPGKGLEWVSGINWNGGSTGYADSVKGRFTISRDNAKNSLYLQMNSLRAEDTAVYYCARGLSLRPWGQGTLVTVSRGGGGSGGGGSGGGGSSELTQDPAVSVALGQTVRITCQGDSLRSYYASWYQQKPGQAPVLVIYGKNNRPSGIPDRFSGSSSGNTASLTITGAQAEDEADYYCNSRDSSGNHVVFGGGTKLTVLGAAA
B2: SC03-006 (scFv)
scFv: SMAEVQLVESGGGLVQPGGSLRLSCAASGFTFSGYPMHWVRQAPGKGLEWVAVISYDGSNKYYADSVKGRFTISRDNSKNTLYLQMNSLRAEDTAVYYCAKDGSPRTPSFDYWGQGTLVTVLEGTGGSGGTGSGTGTSELDIQMTQSPHSLSASVGDRVTITCRASQGISNYLAWYQQKPGKVPKLLIYAASTLQSGVPSRFSGSGSGTDFTLTISSLQPEDVGVYYCQQRFRTPVTFGQGTKLEIKRAAA

Tests used:
[1] = tested on: antibodies in sera from SARS patients (sera 1a, 1b, 2, 6, 37, 62, London, SARS-yellow, SARS-green); format: binding, human; parameters: Binding of serum 6 to linear peptides of protein X1 of SARS-CoV Urbani / Binding of serum 37 to linear peptides of protein X1 of SARS-CoV Urbani / Binding of serum 6 to looped/cyclic peptide (PEPSCAN-ELISA) / Binding of serum 37 to looped/cyclic peptide (PEPSCAN-ELISA) / Binding of serum 37 to looped/cyclic peptides of protein X1 of SARS-CoV Urbani / Binding of serum 6 to linear peptides of protein X2 / Binding of serum 37 to linear peptides of protein X2 / Binding of serum 37 to looped/cyclic peptides of protein X2 of SARS-CoV Urbani / Binding of serum 6 to linear peptides of protein M of SARS-CoV Urbani / Binding of serum 37 to linear peptides of protein M of SARS-CoV Urbani / Binding of serum 6 to looped/cyclic peptides of protein M of SARS-CoV Urbani / Binding of serum 37 to looped/cyclic peptides of protein M of SARS-CoV Urbani / Binding of serum 6 to linear peptides of protein X3 of SARS-CoV Urbani / Binding of serum 37 to linear peptides of protein X3 of SARS-CoV Urbani / Binding of serum 37 to looped/cyclic peptides of protein X3 of SARS-CoV Urbani / Binding of serum 6 to linear peptides of protein X4 of SARS-CoV Urbani / Binding of serum 37 to linear peptides of protein X4 of SARS-CoV Urbani / Binding of serum 37 to looped/cyclic peptides of protein X4 of SARS-CoV Urbani / Binding of serum 6 to linear peptides of protein X5 of SARS-CoV Urbani / Binding of serum 37 to linear peptides of protein X5 of SARS-CoV Urbani / Binding of serum 37 to looped/cyclic peptides of protein X5 of SARS-CoV Urbani / Binding of serum 6 to linear peptides of protein N of SARS-CoV Urbani / Binding of serum 37 to linear peptides of protein N of SARS-CoV Urbani / Binding of serum 6 to linear peptide (PEPSCAN-ELISA) / Binding of serum 1a to looped/cyclic peptides of protein N of SARS-CoV Urbani / Binding of serum 1b to looped/cyclic peptides of protein N of SARS-CoV Urbani / Binding of serum 2 to looped/cyclic peptides of protein N of SARS-CoV Urbani / Binding of serum 6 to looped/cyclic peptides of protein N of SARS-CoV Urbani / Binding of serum 37 to looped/cyclic peptides of protein N of SARS-CoV Urbani / Binding of serum 62 to looped/cyclic peptides of protein N of SARS-CoV Urbani / Binding of serum London to looped/cyclic peptides of protein N of SARS-CoV Urbani / Binding of serum SARS-green to looped/cyclic peptides of protein N of SARS-CoV Urbani: unit not given here
[2] = tested on: control sera (pooled serum of ten healthy LUMC hospital workers; commercial negative donor pooled serum from the Dutch bloodbank); format: binding, human; parameters: Binding of Control serum LUMC to linear peptides / Binding of Control serum Blood-bank to linear peptides / Binding of Control serum LUMC to looped peptides / Binding of Control Serum Blood-Bank to Looped peptides / Binding of Control serum LUMC to linear peptides of the protein M of SARS-CoV Urbani / Binding of Control serum Blood-bank to linear peptides of the protein M of SARS-CoV Urbani / Binding of Control serum LUMC to looped peptides of the protein M of SARS-CoV Urbani / Binding of Control Serum Blood-Bank to Looped peptides of the protein M of SARS-CoV Urbani: unit not given here
[3] = tested on: recombinant human anti-SARS-CoV antibody 03-018; format: binding; parameters: Binding of antibody 03-018 to linear peptides of the N protein of SARS-CoV Urbani / Binding of antibody 03-018 to looped/cyclic peptides of the N protein of SARS-CoV Urbani: unit not given here
[4] = tested on: rabbit serum obtained by immunizing a rabbit with the SARS-CoV strain Frankfurt 1; format: binding; parameters: Binding of a rabbit serum to linear peptides / Binding of a rabbit serum to looped peptides / Rabbit serum linear peptides / Rabbit serum looped peptides / Binding of a rabbit serum to linear peptides of protein N of SARS-CoV Urbani (Rabbit serum linear peptides) / Binding of a rabbit serum to looped/cyclic peptides of protein N of SARS-CoV Urbani (Rabbit serum looped peptides): unit not given here
[5] = target: SARS-CoV preparation (Frankfurt 1 strain) (SARS-CoV strain Frankfurt 1)

Row | Molecule | Binding of serum 1a to linear peptides of protein N of SARS-CoV Urbani [1] | Binding of serum 1a to looped/cyclic peptides of protein N of SARS-CoV Urbani [1] | Binding of serum 1b to linear peptides of protein N of SARS-CoV Urbani [1] | Binding of serum 1b to looped/cyclic peptides of protein N of SARS-CoV Urbani [1] | Binding of serum 2 to linear peptides of protein N of SARS-CoV Urbani [1] | Binding of serum 2 to looped/cyclic peptides of protein N of SARS-CoV Urbani [1] | Binding of serum 6 to linear peptides of protein N of SARS-CoV Urbani [1] | Binding of serum 6 to looped/cyclic peptides of protein N of SARS-CoV Urbani [1] | Binding of serum 37 to linear peptides of protein N of SARS-CoV Urbani [1] | Binding of serum 37 to looped/cyclic peptides of protein N of SARS-CoV Urbani [1] | Binding of serum 62 to linear peptides of protein N of SARS-CoV Urbani [1] | Binding of serum 62 to looped/cyclic peptides of protein N of SARS-CoV Urbani [1] | Binding of serum London to linear peptides of protein N of SARS-CoV Urbani [1] | Binding of serum London to looped/cyclic peptides of protein N of SARS-CoV Urbani [1] | Binding of serum SARS-green to linear peptides of protein N of SARS-CoV Urbani [1] | Binding of serum SARS-green to looped/cyclic peptides of protein N of SARS-CoV Urbani [1] | Binding of serum SARS-yellow to linear peptides of protein N of SARS-CoV Urbani [1] | Binding of serum SARS-yellow to looped/cyclic peptides of protein N of SARS-CoV Urbani [1] | Binding of antibody 03-018 to linear peptides of the N protein of SARS-CoV Urbani [3] | Binding of antibody 03-018 to looped/cyclic peptides of the N protein of SARS-CoV Urbani [3] | other results
1 | YKHWPQIAQFAPSAS | 0.3 | 0.5 | 0.1 | 0.3 | 0.2 | 0.5 | 0.2 | 0.3 | 0.8 | 0.7 | 0.7 | 0.7 | 0.6 | 0.5 | 0.4 | 0.4 | 0.7 | 0.6 | 0.1 | 0.2 | Control Serum Blood-Bank Looped peptides [2]: 0.8; Control serum Blood-bank linear peptides [2]: 0.9; Control serum LUMC linear peptides [2]: 0.7; Control serum LUMC looped peptides [2]: 0.8; Binding of a rabbit serum to linear peptides of protein N of SARS-CoV Urbani (Rabbit serum linear peptides) [4]: 0.1; Binding of a rabbit serum to looped/cyclic peptides of protein N of SARS-CoV Urbani (Rabbit serum looped peptides) [4]: 0.5
2 | YNVTQAFGRRGPEQT | – | 0.3 | – | 0.2 | – | 0.3 | – | 0.1 | – | 0.5 | – | 0.3 | – | 0.3 | – | 0.2 | – | 0.3 | 0.1 | 0.2 | Binding of serum 1a to linear peptide (PEPSCAN-ELISA) [1]: 0.3; Binding of serum 1b to linear peptide (PEPSCAN-ELISA) [1]: 0.1; Binding of serum 2 to linear peptide (PEPSCAN-ELISA) [1]: 0.2; Binding of serum 6 to linear peptide (PEPSCAN-ELISA) [1]: 0.2; Binding of serum 37 to linear peptide (PEPSCAN-ELISA) [1]: 0.7; Binding of serum 62 to linear peptide (PEPSCAN-ELISA) [1]: 0.7; Binding of serum London to linear peptide (PEPSCAN-ELISA) [1]: 0.5; Binding of serum SARS-green to linear peptide (PEPSCAN-ELISA) [1]: 0.6; Binding of serum SARS-yellow to linear peptide (PEPSCAN-ELISA) [1]: 0.6; Binding of Control Serum Blood-Bank to Looped peptides [2]: 0.5; Binding of Control serum Blood-bank to linear peptides [2]: 0.7; Binding of Control serum LUMC to linear peptides [2]: 0.6; Binding of Control serum LUMC to looped peptides [2]: 0.5; Recognition of the peptide by the rabbit serum [4]: recognized
3 | YRRATRRVRGGDGKM | 0.3 | 0.2 | 0.1 | 0.1 | 0.3 | 0.2 | 0.3 | 0.1 | 0.8 | 0.4 | 0.7 | 0.3 | 0.5 | 0.3 | 0.4 | 0.2 | 0.6 | 0.1 | 0.1 | 0.2 | Binding of Control Serum Blood-Bank to Looped peptides [2]: 0.4; Binding of Control serum Blood-bank to linear peptides [2]: 0.8; Binding of Control serum LUMC to linear peptides [2]: 0.7; Binding of Control serum LUMC to looped peptides [2]: 0.3; Binding of a rabbit serum to linear peptides of protein N of SARS-CoV Urbani (Rabbit serum linear peptides) [4]: 0.2; Binding of a rabbit serum to looped/cyclic peptides of protein N of SARS-CoV Urbani (Rabbit serum looped peptides) [4]: 0.0
4 | B1 | – | – | – | – | – | – | – | – | – | – | – | – | – | – | – | – | – | – | – | – | OD492nm [5]: 0.796 OD492nm
5 | B2 | – | – | – | – | – | – | – | – | – | – | – | – | – | – | – | – | – | – | – | – | OD492nm [5]: 1.06 OD492nm
